Read-outs that look alike come from different tables or passages of the source.
System: brain of rats subjected to severe traumatic brain injury (sTBI)
[1] = 1 mg/kg, 2 days post-TBI, of 221 genes
[2] = 1 mg/kg, 7 days post-TBI, of 2741 genes
[3] = 5 mg/kg, 2 days post-TBI, of 221 genes
[4] = 5 mg/kg, 7 days post-TBI, of 2741 genes
[5] = 15 mg/kg, 2 days post-TBI, of 221 genes
[6] = 15 mg/kg, 7 days post-TBI, of 2741 genes
[7] = 3 repeated doses of 15 mg/kg, 7 days post-TBI, of 2741 genes
[8] = DS 1 mg/kg, day 7 following TBI, relative to TBI model
[9] = DS 5 mg/kg, day 7 following TBI, relative to TBI model
[10] = DS 15 mg/kg, day 7 following TBI, relative to TBI model

Method: As a starting point, a list and expression levels of molecules differentially regulated by dextran sulfate relative to a TBI model for the three different doses (1 mg/kg, 5 mg/kg and 15 mg/kg) of dextran sulfate at day 7 following TBI were established.
Male Wistar rats of 300-350 g body weight were fed with standard laboratory diet and water ad libitum in a controlled environment. As the anesthetic mixture, the animals received 35 mg/kg b.w. ketamine and 0.25 mg/kg body weight midazolam by i.p. injection. Severe traumatic brain injury (sTBI) was induced by dropping a 450 g weight from 2 m height on to the rat head that had been protected by a metal disk previously fixed on the skull, according to the “weight drop” impact acceleration model (Marmarou et al., J Neurosurg. 1994; 80: 291-300). […] At the end of each period of treatment, rats were anesthetized again and then immediately sacrificed.
LMW-DS (Tikomed AB) was provided at a stock concentration of 20 mg/ml and was kept in a temperature-monitored refrigerator at 4° C. LMW-DS aliquots were diluted to the appropriate dosing concentration in sterile saline prior to delivery of a single subcutaneous injection.
Three doses of LMW-DS were administered subcutaneously 30 minutes post-TBI. The animals were sacrificed at 2 days post-TBI. The animals were divided into the following subgroups:
Three doses of LMW-DS were administered subcutaneously 30 minutes post-TBI. The animals were sacrificed at 7 days post-TBI. The animals were divided into the following subgroups:
An in vivo craniectomy was performed on all animals during anesthesia. After carefully removing the rat's skull, the brain was exposed and removed with a surgical spatula and quickly dropped in RNALater and preserved at 4° C. for further processing.
The arrays used were the Agilent Rat expression arrays.
Statistical analysis was performed to quantitate the effect of sTBI on the brain in this model. The follow-on analyses looked at the effects of LMW-DS in this model using different iterations and algorithms. Statistical analysis was carried out using the Metaboanalyst software package. Gene expression changes of 10% with a p<0.05 were regarded as significant.

sodium salt of dextran sulfate [LMW-DS]
genes with altered TBI-specific expression (1 mg/kg within 30 min after injury, 2 days of sTBI): 372 genes
genes with altered TBI-specific expression (1 mg/kg within 30 min after injury, 7 days of sTBI): 3602 genes
genes differing from healthy controls (1 mg/kg, 2 days after sTBI): 209 genes
TBI-deregulated genes remaining deregulated relative to healthy controls [1]: 22 genes
share of TBI-deregulated genes remaining deregulated [1]: 10%
genes differing from healthy controls (1 mg/kg, 7 days after sTBI): 282 genes
TBI-deregulated genes remaining deregulated relative to healthy controls [2]: 124 genes
share of TBI-deregulated genes remaining deregulated [2]: 4.5%
genes with altered TBI-specific expression (5 mg/kg within 30 min after TBI, 2 days of sTBI): 702 genes
genes with altered TBI-specific expression (5 mg/kg within 30 min after TBI, 7 days of sTBI): 3852 genes
genes differing from healthy controls (5 mg/kg, 2 days after sTBI): 258 genes
TBI-deregulated genes remaining deregulated relative to healthy controls [3]: 51 genes
share of TBI-deregulated genes remaining deregulated [3]: 23%
genes differing from healthy controls (5 mg/kg, 7 days after sTBI): 398 genes
TBI-deregulated genes remaining deregulated relative to healthy controls [4]: 169 genes
share of TBI-deregulated genes remaining deregulated [4]: 6.1%
genes with altered TBI-specific expression (15 mg/kg within 30 min after TBI, 2 days of sTBI): 247 genes
genes with altered TBI-specific expression (15 mg/kg within 30 min after TBI, 7 days of sTBI): 3901 genes
genes differing from healthy controls (15 mg/kg, 2 days after sTBI): 47 genes
TBI-deregulated genes remaining deregulated relative to healthy controls [5]: 19 genes
share of TBI-deregulated genes remaining deregulated [5]: 8.5%
genes differing from healthy controls (15 mg/kg, 7 days after sTBI): 158 genes
TBI-deregulated genes remaining deregulated relative to healthy controls [6]: 85 genes
share of TBI-deregulated genes remaining deregulated [6]: 3.1%
genes differing from healthy controls (3 repeated doses of 15 mg/kg, 7 days after sTBI): 234 genes
TBI-deregulated genes remaining deregulated relative to healthy controls [7]: 116 genes
share of TBI-deregulated genes remaining deregulated [7]: 4.25%
AFP fold change (FC) [8]: −1.439
ATP2A3 fold change (FC) [8]: −1.284
ATP8A1 fold change (FC) [8]: 1.280
BDNF fold change (FC) [8]: 1.635
CRH fold change (FC) [8]: 1.253
FGF1 fold change (FC) [8]: −1.366
HBEGF fold change (FC) [8]: 1.235
IL-17B fold change (FC) [8]: 1.863
KITLG fold change (FC) [8]: −1.251
LDLR fold change (FC) [8]: 1.364
NOG fold change (FC) [8]: 1.304
PF4 fold change (FC) [8]: −1.453
SLC1A4 fold change (FC) [8]: 1.498
SLC7A11 fold change (FC) [8]: 1.490
SLC16A7 fold change (FC) [8]: 1.493
SLC29A1 fold change (FC) [8]: −1.370
SLC40A1 fold change (FC) [8]: −1.345
TNFSF15 fold change (FC) [8]: 3.878
TSLP fold change (FC) [8]: 1.389
TTR fold change (FC) [8]: −2.531
VAV3 fold change (FC) [8]: −1.505
AFP fold change (FC) [9]: −1.280
ATP2A3 fold change (FC) [9]: −1.205
ATP8A1 fold change (FC) [9]: 1.223
BDNF fold change (FC) [9]: 1.708
CRH fold change (FC) [9]: 1.316
FGF1 fold change (FC) [9]: −1.382
HBEGF fold change (FC) [9]: 1.274
IL-17B fold change (FC) [9]: 1.765
KITLG fold change (FC) [9]: −1.274
LDLR fold change (FC) [9]: 1.291
NOG fold change (FC) [9]: 1.305
PF4 fold change (FC) [9]: −1.331
SLC1A4 fold change (FC) [9]: 1.531
SLC4A1 fold change (FC) [9]: −1.442
SLC7A11 fold change (FC) [9]: 1.469
SLC16A7 fold change (FC) [9]: 1.441
SLC29A1 fold change (FC) [9]: −1.377
SLC40A1 fold change (FC) [9]: −1.338
TNFSF15 fold change (FC) [9]: 4.302
TSLP fold change (FC) [9]: 1.446
TTR fold change (FC) [9]: −1.915
VAV3 fold change (FC) [9]: −1.418
AFP fold change (FC) [10]: −1.208
ATP2A3 fold change (FC) [10]: −1.216
ATP8A1 fold change (FC) [10]: 1.212
BDNF fold change (FC) [10]: 1.557
CRH fold change (FC) [10]: 1.293
FGF1 fold change (FC) [10]: −1.213
GOSR1 fold change (FC) [10]: 1.233
HBEGF fold change (FC) [10]: 1.250
IL36RN fold change (FC) [10]: 1.284
IL-17B fold change (FC) [10]: 1.729
KITLG fold change (FC) [10]: −1.261
LDLR fold change (FC) [10]: 1.212
NOG fold change (FC) [10]: 1.281
PF4 fold change (FC) [10]: −1.244
SLC1A4 fold change (FC) [10]: 1.518
SLC4A1 fold change (FC) [10]: −1.213
SLC7A11 fold change (FC) [10]: 1.477
SLC16A7 fold change (FC) [10]: 1.408
SLC29A1 fold change (FC) [10]: −1.316
SLC40A1 fold change (FC) [10]: −1.348
TNFSF15 fold change (FC) [10]: 3.939
TSLP fold change (FC) [10]: 1.322
TTR fold change (FC) [10]: −2.179
VAV3 fold change (FC) [10]: −1.318

— patent US20220128542A1, “TREATMENT EFFICIENCY EVALUATION” (TX MEDIC AB, priority 2019, published 2022)
